Assay results as given in patent US12403184B2, “Compositions and methods for treating neurodegenerative disroders” (priority 2018, dated 2025).
Where no end group is shown, it is not given here.

Tests used:
Drp1 [1] = biological target: Drp1 (Homo sapiens, UniProt O00429); assay: Drp1 GTP hydrolysis in vitro; assay type: biochemical
Description: Drp1 GTP hydrolysis was monitored as a function of time as described previously.

mtDNA [2] = assay: Measurement of mtDNA content; assay type: cell-based, mouse; conditions: HdhQ111 cells, relative to TAT
Method: Total DNA was isolated from cells using Blood and Cell culture kit (QIAGEN), and then subject to qPCR using QuantiTect SYBR Green (QIAGEN). Quantitative PCR was performed using nuclear primers (GAPDH or Tert) and mtDNA primers (mt-CO2, mt-ND2, mt-CO1 and D-loop). Three technical replicates were performed for each biological sample, and the mtDNA abundance of each replicate were normalized against nuclear DNA using the 2-ΔΔCT method.

Drp1 [3] = assay: Drp1 mitochondrial level and Drp1 oligomerization in striatum of treated HD mice; assay type: in vivo, mouse; conditions: for Drp1 translocation to the mitochondria: 1 mg/kg/day
Method: (§1) Cells were washed with cold phosphate-buffered saline (PBS) and incubated on ice in mitochondrial lysis buffer (250 mM sucrose, 20 mM HEPES-NaOH, pH 7.5, 10 mM KCl, 1.5 mM MgCl2, 1 mM EDTA, 1 mM EGTA, protease inhibitor cocktail, and phosphatase inhibitor cocktail) for 30 min. The cells were scraped and then disrupted 15 times by repeated aspiration through a 25-gauge needle. Mouse brains were minced and homogenized in mitochondrial lysis buffer to release mitochondria. The homogenates were spun at 800×g for 10 min at 4° C., and the resulting supernatants were spun at 12,000×g for 20 min at 4° C. The pellets were washed with lysis buffer and spun at 12,000×g again for 20 min at 4° C. The final pellets were suspended in lysis buffer containing 1% Triton X-100 and were mitochondrial-rich lysate fractions. The mitochondrial protein voltage-dependent anion channel (VDAC) was used as a loading control.
(§2) Protein concentration was measured by protein assay dye reagents (Bio-rad). The protein was resuspended in Laemmli buffer, loaded on SDS-PAGE, and transferred onto nitrocellulose membranes. Membranes were probed with the indicated antibodies, followed by visualization with ECL. Representative blots have been cropped for presentation.
Systemic peptide treatment in HD mice. All randomization and peptide treatments were prepared by an experimenter not associated with behavioral and neuropathology analysis. Male R6/2 mice (Tg) and their age-matched wild-type littermates (Wt) (6-week-old) were implanted with a 28-day osmotic pump (Alzet, Cupertino CA, Model 2004) containing TAT control peptide or DA1 peptide, which delivered peptides at a rate of 1 mg/kg/day. Male YAC128 mice (Tg) and their age-matched wild-type littermates (WT) were treated with TAT control peptide or DA1 peptide (1 mg/kg/day) by Alzet osmotic pump starting from the age of 3 months. The pump was replaced once every month.

[4] = 1 mg/kg/day, administered subcutaneously
mtDNA [5] = assay: mtDNA content in plasma of YAC128 mice by qPCR; assay type: in vivo, mouse; conditions: YAC128 mice at the age of 6 months
Method: For isolation of DNA from mouse plasma, the QIAamp DNA Blood Mini Kit (QIAGEN) was used. Briefly, 100-200 μl mouse plasma was subjected to total DNA extraction. Then the eluted DNA was diluted (1:5) to perform the qPCR experiment.

Drp1 [6] = assay: Drp1 mitochondrial level and Drp1 polymerization by western blot in HD mouse striatal cells; assay type: cell-based
Method: as §1, §2

mtDNA [7] = assay: Measurement of mtDNA lesion by quantitative PCR; assay type: cell-based, mouse; conditions: HdhQ111 cells, relative to TAT
Description: Because the movement of the polymerase on the template is blocked at a lesion, qPCR amplification is inversely proportional to the presence of DNA damage. The level of mtDNA lesion will be calculated by comparing the 10 kb mtDNA fragment amplification, as described previously. To correct for the possible variations in the rate of mtDNA replication, the amplification of 10 kb mtDNA fragment was normalized to the 91 bp small mtDNA amplicon. Specifically, Total DNA was isolated as shown above. The amplification profile consisted of a 45-s denaturation at 94° C., 22 cycles of denaturation for 15 s at 94° C., annealing/extension at 64° C. for 12 min, and a final extension at 72° C. for 10 min.

HD R6/2 mice = assay: Striatal neuropathology in R6/2 mice (DARPP-32 immunohistochemistry, Golgi-Cox staining, striatum volume); assay type: in vivo, mouse
Method: Mice were deeply anesthetized and transcardially perfused with 4% paraformaldehyde in PBS. Brains were processed for paraffin embedment. Brain sections (10 μm, coronal) were used for immunohistochemical localization of DARPP-32 (1:500, Abcam) or ATAD3A (1:200, Genetex) using the IHC Select HRP/DAB kit (Millipore). Quantitation of DARPP-32 immunostaining was conducted using NIH image J software. The same image exposure times and threshold settings were used for sections from all treatment groups. An experimenter blinded to the experimental groups conducted the quantitation.
Coronal sections (10 μm) spaced 200 μm apart throughout the striatum will be stained with anti-NeuN (Sigma, MAB377, 1:200 dilution) antibody followed by secondary antibodies and detection with diaminobenzidine (DAB, Pierce). The perimeter of the striatum will be traced in each of the serial sections using a ×2 objective. For the volume estimation, consecutive sections (an average of 10-15 sections/animal) will be visualized and the perimeter of the striatum will be outlined. The striatal volume will be estimated by multiplying the sum of all the sectional areas (mm2) by the distance between successive sections (200 μm).
Dendrite morphology of medium spiny neurons in wildtype and HD R6/2 mice was analyzed by Golgi-Cox staining using Novaultra Golgi-Cox Stain Kit (IHCWorld, SKU IW-3023). Briefly, mice were deeply anesthetized and transcardially perfused with 4% paraformaldehyde in PBS. After thoroughly washing with PBS overnight, mouse brains were immersed in the Golgi-Cox solution in dark at room temperature, then replaced with fresh Golgi-Cox Solution after 2 days of immersion and continued the impregnation at room temperature in dark for 14 days following the manufactory instruction. After washing with PBS for 2 days, serial coronal sections of 200 μm thick were cut on Vibratome Series 1000 Sectioning System. […] Total dendritic length per neuron was measured using NIH Image J plug-in simple neurite tracer.

Drp1 (Homo sapiens, UniProt O00429), sequence (O00429 whole entry): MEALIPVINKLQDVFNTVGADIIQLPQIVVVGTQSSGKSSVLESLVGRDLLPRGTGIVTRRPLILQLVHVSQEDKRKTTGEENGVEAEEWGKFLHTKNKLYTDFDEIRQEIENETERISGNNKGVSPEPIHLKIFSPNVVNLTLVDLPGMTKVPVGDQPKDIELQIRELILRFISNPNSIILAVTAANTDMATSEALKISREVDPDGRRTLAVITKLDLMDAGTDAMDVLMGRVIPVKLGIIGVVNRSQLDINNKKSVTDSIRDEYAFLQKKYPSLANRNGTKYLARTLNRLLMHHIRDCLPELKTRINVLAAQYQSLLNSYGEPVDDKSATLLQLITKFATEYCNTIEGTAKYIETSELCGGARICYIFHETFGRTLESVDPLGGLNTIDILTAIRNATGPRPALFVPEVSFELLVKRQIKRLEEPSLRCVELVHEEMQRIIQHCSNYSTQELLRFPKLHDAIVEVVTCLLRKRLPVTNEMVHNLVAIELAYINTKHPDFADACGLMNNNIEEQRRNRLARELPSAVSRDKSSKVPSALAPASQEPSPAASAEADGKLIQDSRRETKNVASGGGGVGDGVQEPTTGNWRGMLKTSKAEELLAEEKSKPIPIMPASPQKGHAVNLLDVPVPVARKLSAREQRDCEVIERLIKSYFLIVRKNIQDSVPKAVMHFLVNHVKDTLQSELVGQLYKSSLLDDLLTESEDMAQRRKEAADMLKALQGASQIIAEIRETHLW

Substance: YGRKKRRQRRRGGEDKRKT-NH2 [DA1, YGRKKRRQRRR-GG-EDKRKT-NH2]
- Drp1 oligomerization-induced GTPase activity (Drp1 [1]): no effects
- mtDNA copy number (mtDNA [2]): increased
- Drp1 translocation to the mitochondria (Drp1 [3]; striatum of HD R6/2 mice): abrogated
- Drp1 polymerization (Drp1 [3]; striatum of HD R6/2 mice, 12 weeks old): abrogated
- Drp1 translocation to the mitochondria (Drp1 [3]; striatum of HD YAC128 mice): abrogated
- Drp1 polymerization (Drp1 [3]; striatum of HD YAC128 mice, 12 months old): abrogated
- brain entry [4]: entered the brain
- increase of plasma mtDNA content (mtDNA [5]): abolished
- Drp1 polymerization (Drp1 [6]; HD mouse striatal cells): abrogated
- Drp1 translocation to the mitochondria (Drp1 [6]; HD mouse striatal cells, 1 μM/day for 4 days): abrogated
- inhibitory effect on Drp1 tetramer formation (Drp1 [6]; upon ATAD3A knockdown): abolished upon ATAD3A knockdown
- mtDNA lesion (mtDNA [7]): diminished
- dendritic morphology of MSN (Golgi-Cox staining) (HD R6/2 mice): improved
- striatum volume (HD R6/2 mice): increased
- area occupied by DARPP-32-immunostained cells in the striatum (HD R6/2 mice; 12 weeks old): increased
